Measured values reported in patent US9586948B2, “Inhibitors of IRAK4 activity” (MERCK SHARP & DOHME CORP., priority 2012, dated 2017).

What follows are compounds tested against GST tagged IRAK4 (Homo sapiens (Human), UniProt Q9NWZ3) (assay: Determination of IRAK4 kinase activity (IMAP fluorescence polarization)). Conditions: 0.5 nM GST tagged IRAK4, 100 nM fluorescent peptide substrate RP7030, 100 μM ATP, 30 minutes at 25° C.
Format: biochemical
Experimental: The kinase activity of IRAK4 is determined by its ability to catalyze the phosphorylation of a fluorescent polypeptide substrate. The extent of phosphorylation is measured using IMAP technology (Molecular Devices) where the phosphorylated fluorescent substrate binds to the large M(III)-based nanoparticles which reduces the rotational speed of the substrate and thus increases its fluorescent polarization (FP).
Procedure: A 20 μl reaction mixture contains 10 mM TriHCl, pH 7.2, 0.5 nM GST tagged IRAK4 (SignalChem), 100 nM fluorescent peptide substrate (RP7030, Molecular Devices), 100 μM ATP, 1 mM DTT, 1 mM MgCl2, and 0.01% Tween 20. The reaction is initiated by the addition of ATP. After incubation for 30 minutes at 25° C., 60 μl of Progressive IMAP Reagent (Molecular Devices) is added to stop the reaction. Change in RP7030's FP is determined by a FP reader (Analyst HT, LJL BioSystems).

GST tagged IRAK4, sequence (Q9NWZ3 whole entry): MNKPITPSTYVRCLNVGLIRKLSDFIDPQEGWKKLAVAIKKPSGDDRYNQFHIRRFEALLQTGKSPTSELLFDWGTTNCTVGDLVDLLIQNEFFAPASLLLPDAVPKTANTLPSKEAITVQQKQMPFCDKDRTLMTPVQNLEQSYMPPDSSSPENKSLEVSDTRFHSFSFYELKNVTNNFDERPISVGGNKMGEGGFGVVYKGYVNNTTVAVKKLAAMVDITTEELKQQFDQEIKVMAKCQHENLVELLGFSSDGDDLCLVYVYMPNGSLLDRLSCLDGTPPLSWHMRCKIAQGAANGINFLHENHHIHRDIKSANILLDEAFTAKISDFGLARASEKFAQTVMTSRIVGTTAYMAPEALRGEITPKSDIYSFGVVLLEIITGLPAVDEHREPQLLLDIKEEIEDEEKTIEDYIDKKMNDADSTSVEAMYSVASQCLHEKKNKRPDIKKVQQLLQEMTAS

SMILES	IC50 [nM]
Cn1cc(NC(=O)c2cccc(-c3ccnc(NCC4CC4)c3)n2)c(C(=O)NCCc2ccccn2)n1 [Example 38, 2′-((cyclopropylmethyl)amino)-N-(1-methyl-3-((2-(pyridin-2-yl)ethyl)carbamoyl)-1H-pyrazol-4-yl)-[2,4′-bipyridine]-6-carboxamide]	4970
Cn1cc(NC(=O)c2cncc(-c3ccnc(NCC4CC4)c3)c2)c(C(N)=O)n1 [Example 7, N-(3-carbamoyl-1-methyl-1H-pyrazol-4-yl)-2′-(cyclopropylmethylamino)-3,4′-bipyridine-5-carboxamide]	1100
CN(C)CCCNC(=O)c1nn(C)cc1NC(=O)c1cccc(-c2ccnc(NCC3CC3)c2)n1 [Example 40, 2′-((cyclopropylmethyl)amino)-N-(3-((3-(dimethylamino)propyl)carbamoyl)-1-methyl-1H-pyrazol-4-yl)-[2,4′-bipyridine]-6-carboxamide]	535
Cn1cc(NC(=O)c2cccc(-c3ccnc(NCC4CC4)c3)n2)c(C(=O)NCc2nncs2)n1 [Example 48, N-(3-(((1,3,4-thiadiazol-2-yl)methyl)carbamoyl)-1-methyl-1H-pyrazol-4-yl)-2′-((cyclopropylmethyl)amino)-[2,4′-bipyridine]-6-carboxamide]	2430
Cn1cc(NC(=O)c2cccc(-c3ccnc(NCC4CC4)c3)n2)c(C(=O)NCc2ncc[nH]2)n1 [Example 36, N-(3-(((1H-imidazol-2-yl)methyl)carbamoyl)-1-methyl-1H-pyrazol-4-yl)-2′-((cyclopropylmethyl)amino)-[2,4′-bipyridine]-6-carboxamide]	1540
Cn1cc(NC(=O)c2cccc(-c3ccnc(NCC4CC4)c3)n2)c(C(=O)NCCc2cnccn2)n1 [Example 44, 2′-((cyclopropylmethyl)amino)-N-(1-methyl-3-((2-(pyrazin-2-yl)ethyl)carbamoyl)-1H-pyrazol-4-yl)-[2,4′-bipyridine]-6-carboxamide]	2670
Cn1cc(NC(=O)c2cccc(-c3ccnc(NCC4CC4)c3)n2)c(C(=O)NCCn2cccn2)n1 [Example 50, N-(3-((2-(1H-pyrazol-1-yl)ethyl)carbamoyl)-1-methyl-1H-pyrazol-4-yl)-2′-((cyclopropylmethyl)amino)-[2,4′-bipyridine]-6-carboxamide]	2680
CN1CCC=C(c2cccc(C(=O)Nc3cn(C)nc3C(N)=O)n2)C1 [Example 33, N-(3-carbamoyl-1-methyl-1H-pyrazol-4-yl)-1′-methyl-1′,2′,5′,6′-tetrahydro-[2,3′-bipyridine]-6-carboxamide]	739
Cn1cc(NC(=O)c2cccc(-c3ccnc(NCC4CC4)c3)n2)c(C(=O)NCc2ccncn2)n1 [Example 47, 2′-((cyclopropylmethyl)amino)-N-(1-methyl-3-((pyrimidin-4-ylmethyl)carbamoyl)-1H-pyrazol-4-yl)-[2,4′-bipyridine]-6-carboxamide]	4380
Cn1cc(NC(=O)c2cccc(-c3ccnc(NCC4CC4)c3)n2)c(C(=O)NC2CCOC2)n1 (stereo not drawn) [Example 51, 2′-((cyclopropylmethyl)amino)-N-(1-methyl-3-((tetrahydrofuran-3-yl)carbamoyl)-1H-pyrazol-4-yl)-[2,4′-bipyridine]-6-carboxamide]	2280
Cn1cc(NC(=O)c2cccc(-c3cnccc3Cl)n2)c(C(N)=O)n1 [Example 31, N-(3-carbamoyl-1-methyl-1H-pyrazol-4-yl)-4′-chloro-[2,3′-bipyridine]-6-carboxamide]	620
Cn1cc(NC(=O)c2cccc(N3CCOCC3)n2)c(C(N)=O)n1 [Example 9, N-(3-carbamoyl-1-methyl-1H-pyrazol-4-yl)-6-morpholinopicolinamide]	3220
CN1CCC(CNC(=O)c2nn(C)cc2NC(=O)c2cccc(-c3ccnc(NCC4CC4)c3)n2)C1 (stereo not drawn) [Example 34, 2′-((cyclopropylmethyl)amino)-N-(1-methyl-3-(((1-methylpyrrolidin-3-yl)methyl)carbamoyl)-1H-pyrazol-4-yl)-[2,4′-bipyridine]-6-carboxamide]	729
Cn1cc(NC(=O)c2ccnc(-c3ccnc(NCC4CC4)c3)c2)c(C(N)=O)n1 [Example 5, N-(3-carbamoyl-1-methyl-1H-pyrazol-4-yl)-2′-(cyclopropylmethylamino)-2,4′-bipyridine-4-carboxamide]	1450
Cn1cc(NC(=O)c2cccc(-c3ccsc3)n2)c(C(N)=O)n1 [Example 22, N-(3-carbamoyl-1-methyl-1H-pyrazol-4-yl)-6-(thiophen-3-yl)picolinamide]	362
Cn1cc(NC(=O)c2cccc(-c3ccnc(NCC4CCOCC4)c3)n2)c(C(N)=O)n1 [Example 17, N-(3-carbamoyl-1-methyl-1H-pyrazol-4-yl)-2′-(((tetrahydro-2H-pyran-4-yl)methyl)amino)-[2,4′-bipyridine]-6-carboxamide]	477
Cn1cc(NC(=O)c2cccc(-c3ccnc(NC(=O)OC(C)(C)C)c3)n2)c(C(N)=O)n1 [Example 4, tert-butyl(6-((3-carbamoyl-1-methyl-1H-pyrazol-4-yl)carbamoyl)-[2,4′-bipyridin]-2′-yl)carbamate]	785
Cn1cc(NC(=O)c2cccc(-c3ccc(N4CCOCC4)nc3)n2)c(C(N)=O)n1 [Example 23, N-(3-carbamoyl-1-methyl-1H-pyrazol-4-yl)-6′-morpholino-[2,3′-bipyridine]-6-carboxamide]	1100
Cn1cc(NC(=O)c2cccc(C3=CCOCC3)n2)c(C(N)=O)n1 [Example 30, N-(3-carbamoyl-1-methyl-1H-pyrazol-4-yl)-6-(3,6-dihydro-2H-pyran-4-yl)picolinamide]	426
Cn1cc(NC(=O)c2cccc(N3CCNCC3)n2)c(C(N)=O)n1 [Example 10, N-(3-carbamoyl-1-methyl-1H-pyrazol-4-yl)-6-(piperazin-1-yl)picolinamide]	3450
COc1ncccc1-c1cccc(C(=O)Nc2cn(C)nc2C(N)=O)n1 [Example 20, N-(3-carbamoyl-1-methyl-1H-pyrazol-4-yl)-2′-methoxy-[2,3′-bipyridine]-6-carboxamide]	2130

Compounds with a lower IC50, results first:

IC50 [nM]	SMILES
283	Cn1cc(NC(=O)c2ccnc(-c3ccnc(NCC4CC4)c3)n2)c(C(N)=O)n1 [Example 19, N-(3-carbamoyl-1-methyl-1H-pyrazol-4-yl)-2-(2-((cyclopropylmethyl)amino)pyridin-4-yl)pyrimidine-4-carboxamide]
134	Cn1cc(NC(=O)c2cccc(C3=CCCOC3)n2)c(C(N)=O)n1 [Example 27, N-(3-carbamoyl-1-methyl-1H-pyrazol-4-yl)-6-(5,6-dihydro-2H-pyran-3-yl)picolinamide]
94	Cn1cc(NC(=O)c2cccc(-c3ccc(C4CC4)nc3)n2)c(C(N)=O)n1 [Example 28, N-(3-carbamoyl-1-methyl-1H-pyrazol-4-yl)-6′-cyclopropyl-[2,3′-bipyridine]-6-carboxamide]
187	COCCNc1cc(-c2cccc(C(=O)Nc3cn(C)nc3C(N)=O)n2)ccn1 [Example 15, N-(3-carbamoyl-1-methyl-1H-pyrazol-4-yl)-2′-((2-methoxyethyl)amino)-[2,4′-bipyridine]-6-carboxamide]
201	CNC(=O)c1cccc(-c2cccc(C(=O)Nc3cn(C)nc3C(N)=O)n2)c1 [Example 24, N-(3-carbamoyl-1-methyl-1H-pyrazol-4-yl)-6-(3-(methylcarbamoyl)phenyl)picolinamide]
190	Cn1cc(NC(=O)c2cccc(-c3ccnc(NCC4CC4)c3)n2)c(C(=O)N2CC(CN)C2)n1 [Example 42, N-(3-(3-(aminomethyl)azetidine-1-carbonyl)-1-methyl-1H-pyrazol-4-yl)-2′-((cyclopropylmethyl)amino)-[2,4′-bipyridine]-6-carboxamide]
82	CN1CCC(c2cccc(C(=O)Nc3cn(C)nc3C(N)=O)n2)=CC1=O [Example 32, N-(3-carbamoyl-1-methyl-1H-pyrazol-4-yl)-1′-methyl-6′-oxo-1′,2′,3′,6′-tetrahydro-[2,4′-bipyridine]-6-carboxamide]
212	Cn1cc(NC(=O)c2cccc(-c3cccnc3)n2)c(C(N)=O)n1 [Example 12, N-(3-carbamoyl-1-methyl-1H-pyrazol-4-yl)-[2,3′-bipyridine]-6-carboxamide]
91	Cn1cc(NC(=O)c2cccc(-c3cncc(Cl)c3)n2)c(C(N)=O)n1 [Example 29, N-(3-carbamoyl-1-methyl-1H-pyrazol-4-yl)-5′-chloro-[2,3′-bipyridine]-6-carboxamide]
260	CN1CCCC(CNC(=O)c2nn(C)cc2NC(=O)c2cccc(-c3ccnc(NCC4CC4)c3)n2)C1 (stereo not drawn) [Example 49, 2′-((cyclopropylmethyl)amino)-N-(1-methyl-3-(((1-methylpiperidin-3-yl)methyl)carbamoyl)-1H-pyrazol-4-yl)-[2,4′-bipyridine]-6-carboxamide]
127	Cn1cc(NC(=O)c2cccc(-c3ccnc(NCC(F)(F)F)c3)n2)c(C(N)=O)n1 [Example 18, N-(3-carbamoyl-1-methyl-1H-pyrazol-4-yl)-2′-((2,2,2-trifluoroethyl)amino)-[2,4′-bipyridine]-6-carboxamide]
196	Cn1cc(NC(=O)c2cccc(-c3ccnc(NCC(F)F)c3)n2)c(C(N)=O)n1 [Example 16, N-(3-carbamoyl-1-methyl-1H-pyrazol-4-yl)-2′-((2,2-difluoroethyl)amino)-[2,4′-bipyridine]-6-carboxamide]
